Results as given in BindingDB's records for patent US20240228491 (Scinnohub Pharmaceutical, 2024).
pIC50: −log10 of the molar value.

Molecular target: S-adenosylmethionine synthase isoform type-2 (Homo sapiens, UniProt P31153)
Test: Enzymatic Activity Test
Procedure: The specific steps were as follows: The compounds having the test starling concentration of 1 uM or 10 uM were diluted into 10 concentration points in a 3-fold gradient. 250 nL of the solutions of the compounds to be tested with 10 different concentrations were taken and added into a 384 well plate for later use. 20 ug/mL of MAT2a enzyme solution was prepared with Assay buffer (50 mM Tris, 50 mM KCl, 10 mM MgCl2, 0.05% polyoxyethylene lauryl ether, pH 8.0). 15 uL of the MAT2a enzyme solution at 20 ug/mL was add into the wells of the compounds to be tested at different concentrations; and 15 uL of Assay buffer was added into the negative control well. An incubation was carried out for 15 minutes after shaking for mixing well. A mixed substrate solution (comprising 400 uM ATP and 600 uM L-Methionine) was prepared with Assay buffer. 10 uL of the mixed substrate solution was added to the positive control well, the compound to be tested well, and the negative control well, respectively, and the reaction began, for a reaction time of 150 min. Then, 50 uL of the reaction stop solution (BIOMOL Green Reagent Enzo lifesciences, Cargo No. BML-AK111-1000) was added to stop the reaction, followed by being centrifuged at 1000 rpm for 60 s and then being incubated for 15 min. OD620 was read and data were processed.

Sequence of S-adenosylmethionine synthase isoform type-2 (P31153 whole entry, canonical isoform): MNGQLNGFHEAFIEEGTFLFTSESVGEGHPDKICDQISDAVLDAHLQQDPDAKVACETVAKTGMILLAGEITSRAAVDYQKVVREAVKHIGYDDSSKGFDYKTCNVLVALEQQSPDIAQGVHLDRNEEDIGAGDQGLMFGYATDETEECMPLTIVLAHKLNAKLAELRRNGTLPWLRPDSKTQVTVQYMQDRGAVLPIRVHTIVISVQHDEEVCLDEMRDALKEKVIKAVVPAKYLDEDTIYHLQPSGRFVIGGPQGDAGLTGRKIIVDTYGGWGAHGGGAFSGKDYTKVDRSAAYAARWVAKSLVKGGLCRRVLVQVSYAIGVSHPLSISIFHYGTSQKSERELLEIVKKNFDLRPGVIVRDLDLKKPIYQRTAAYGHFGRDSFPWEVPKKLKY

- pIC50: 7.69
Compound: CNc1c(-c2ccsc2)c(=O)n(-c2ccccc2)c2nc(C(F)(F)F)ccc12 [US20240228491, Example 4]
